Measurements reported in US6562810B1, “8-substituted-9H-1,3-dioxolo/4,5-h//2,3/benzodiazepine derivatives, as AMPA/kainate receptor inhibitors” (Egis Gyogyszergyar RT., priority 1997, dated 2003).
“Also recorded” adds a separate entry of the source. Like-named read-outs stand apart in the source and are kept apart here.

How the values were obtained:
[1] = tested on: male NMRI mice; test: Muscle relaxant effect (inclined screen according to Hoppe); format: in vivo; conditions: ip.; for ED50: Mus musculus, determined at the time of maximal effect; for Muscle relaxant effect duration: time of last reading when the effect was at least 30%
Protocol: The assay was done according to Hoppe in male NMRI mice weighing 20 to 25 g, with 10 animals in each group /Hoppe, J. O., J. Pharmacol. Exp. Ther., 100, 333 (1950)/. Following the ip. treatment of animals, the number of mice showing muscle weakness were recorded at every 10 minutes in the first hour and at half hour intervals afterwards. The animals falling off the 60° inclined screen within 30 seconds were considered positive. ED50 values of the given compounds were determined at each time. The duration of effect was defined as the time of last reading when the effect was at least 30%.

[2] = tested on: AMPA/kainate receptors; test: QNTI (inhibition of quisqualate neurotoxicity) test; format: cell-based, rat; conditions: Inhibition of quisqualate neurotoxicity in primer cortical culture
Protocol: QNTI (inhibition of quisqualate neurotoxicity (test)
The method is based on the phenomenon that the neurotixic effect of quisqualate /i.e. (S)-alpha-amino-3,5-dioxo-1,2,4-oxadiazolidine-2-propanoic acid, an AMPA/kainate agonist/ on the primer telencephalic cell culture of the rat could be inhibited by AMPA/kainate antagonists. The test was performed as described in the literature /Kovács, A. D., Egyed, A.: Protection against non-NMDA receptor-mediated excitotoxicity by GYKI 52466 in mature telencephalic cultures of the rat, Neurobiology, 4, 59-72 (1996)/.

[3] = tested on: AMPA/kainate receptors; test: PSI (inhibition of population spike) test in CA1 neurones of hippocampus; format: cell-based; conditions: non-cumulative IC50, rat hippocampus
Protocol: PSI (inhibition of population spike) test
The field potentials (population spike) evoked by electric stimulation of the Shaffer collateral comissural pathway were measured in the CAl neurones of rat hippocampus. The population spike can be inhibited by AMPA/kainate antagonists. The non-cumulative IC50 values are shown in Table I. /Tarnawa, I., Molnár, P., Gaál, L., Andrási, F.: Inhibition of hippocampal field potentials by GYKI 52466 in vitro and in vivo, Acta Physiol. Hung., 79(2), 163-9 (1992)/.

[4] = Acute toxicity; conditions: both sexes, mouse, in vivo
Protocol: The study was done in NMRI mice of both sexes, weighing 20 to 25 g, with 6 animals in each dose-group. The test compounds were applied at […], and the maximal per os and ip. doses were 500 mg/kg and 300 mg/kg, respectively. The cumulative lethality was recorded on day 7. The animals were kept under standard laboratory conditions.

[5] = tested on: male NMRI mice; test: Global ischemia induced by magnesium chloride (gasping time); format: in vivo; conditions: for Effect in % (increase in gasping time): dose 30 mg/kg ip., 30 minutes before magnesium chloride iv.; for ID50 ip.: gasping time, calculated by linear regression
Protocol: Global Ischemia Induced by Magnesium Chloride
The experiments were carried out as described by Berga et al. /Berga, P., Beckett, P. R., Roberts, D. J., Llenas, J., Massingham, R.: Synergistic interactions between piracetam and dihydroergocristine in some animal models of cerebral hypoxia and ischemia, Arzneim.-Forsch., 36, 1314-1320 (1986)/. Groups of 10 male NMRI mice weighing 20 to 25 g were treated ip. with the test substance in […]. After 30 minutes, saturated aqueous magnesium chloride solution was applied iv. (5 ml/kg) resulting in an immediate cardiac arrest. The elapsed time between the iv. injection and the last gasping was measured (gasping time). The means of the treated groups were expressed as percent of control. Statistical analysis was done by ANOVA followed by DUNCAN test. The dose resulting in 50% descrease in gasping time (ID50) was calculated by linear regression.

[6] = tested on: male DBA/2j strain mice; test: Audiogenic seizure (AS) test; format: in vivo; conditions: for ED50: Mus musculus, 0.25 h
Protocol: Audiogenic seizure (AS) test
The experiments were carried out by the slightly modified method of De Sarro et al. /De Sarro, G. B., Croucher, M. J. and Meldrum, B. S.: Anticonvulsant action of DS 103-282, Neuropharm., 23, 525 (1984)/. Groups of 8 male DBA/2j strain mice weighing 7 to 14 g were treated ip. with the test substance in 10 ml/kg volume. 15 minutes later, the animals were placed into a covered glass container (30 cm in diameter) and exposed to a 14 kHz 120 dB tone for 60 s at the most. Seizure response was assessed using the following scale: 0=normal behaviour, 1=wild running, 2=clonus, 3=tonic flexor seizure, 4=tonic extensor seizure. The maximum response during the 60 s exposure was recorded for each animal. Lethality was also noted. The ED50 values were determined by the method of Litchfield and Wilcoxon concerning the inhibition of clonic seizures and tonic extensor convulsions.

[7] = tested on: male NMRI mice; test: Maximal electroshock test (MES); format: in vivo; conditions: Inhibition of maximal electroshock, ip., 30 minutes before shock; for ED50: Mus musculus
Protocol: Maximal electroshock test (MES)
Male NMRI mice weighing 20 to 30 g were used for the method of Swinyard et al. /Swinyard, E. A., Brown, W. C. and Goodman, L.S.: Comparative assays of antiepileptic drugs in mice and rats, J. Pharmacol., 106, 319 (1952)//. The animals—10 in each group—were treated ip. either with various doses of the test substance or with vehicle. After 30 minutes, a 50 Hz, 40 mA electroshock was applied for 0.4 s through corneal electrodes. The number of animals that developed tonic extensor convulsion of the hind-limbs was registered, percent inhibition was calculated, and ED50 values were determined by the method of Litchfield and Wilcoxon /Litchfield, J. T., Wilcoxon, F. A.: A simplified method of evaluating dose-effect experiments, J. Pharmacol. Exp. Ther., 96, 99 (1949)/ and summarized in Table IV.

Row | Structure (SMILES) | ED50 [1] [mg/kg] | Muscle relaxant effect duration [1] | IC50 [2] [µM] | IC50 [3] [µM] | Effect in % (increase in gasping time) [5] [%] | ID50 ip. [5] [mg/kg] | other results
1 | CC1(C#N)Cc2cc3c(cc2C(c2ccc([N+](=O)[O-])cc2)=NN1)OCO3 (racemic) [Example 58, (±)-8-Cyano-7,8-dihydro-8-methyl-5-(4-nitrophenyl)-9H-1,3-dioxolo/4,5-h//2,3/benzodiazepine] | – | – | – | – | – | – | melting point: 162 to 164 °C
2 | CC1(C#N)Cc2cc3c(cc2C(c2ccc([N+](=O)[O-])cc2)=NN1C(=O)CCl)OCO3 (racemic) [Example 73, (±)-8-Cyano-7,8-dihydro-7-chloroacetyl-8-methyl-5-(4-nitrophenyl)-9H-1,3-dioxolo/4,5-h//2,3/benzodiazepine] | 22.6 | substantially longer; also recorded: higher than 4 hr | 7.4 | 6.3 | – | – | LD50 at 7 day ([4]; NMRI, ip, 300 mg/kg): ~300 mg/kg; LD50 at 7 day ([4]; NMRI, po, 500 mg/kg): > 500 mg/kg
3 | CC1(C#N)Cc2cc3c(cc2C(c2ccc(N)cc2)=NN1C(=O)CCNCCN1CCOCC1)OCO3 (racemic) [Example 89, (±)-5-(4-Aminophenyl)-8-cyano-7,8-dihydro-8-methyl-7-/3-(2-morpholinoethylamino)-propionyl/-9H-1,3-dioxolo/4,5-h//2,3/-benzodiazepine] | 31.3 | 1 h | 5.4 | 3 | 117 | 7 | AS convulsion tonic ED50 ([6]; Inhibition of sound induced seizure, tonic extensor convulsions, DBA/2j mice, ip., 15 minutes): The compound according to Example 89 was significantly more effective at the inhibition of maximal electroshock and sound induced tonic convulsions than the reference compound “A” as shown in Table TV.; ED50 ([6]; Inhibition of sound induced seizure, clonic seizures, DBA/2j mice, ip., 15 minutes, read-out: AS convulsion clonic ED50): 5.4 mg/kg; ED50 ([6]; Inhibition of sound induced seizure, tonic extensor convulsions, DBA/2j mice, ip., 15 minutes, read-out: AS convulsion tonic ED50): 1.2 mg/kg; LD50 at 7 day ([4]; NMRI, ip, 300 mg/kg): ~300 mg/kg; LD50 at 7 day ([4]; NMRI, po, 500 mg/kg): > 500 mg/kg; MES ED50 [7]: The compound according to Example 89 was significantly more effective at the inhibition of maximal electroshock and sound induced tonic convulsions than the reference compound “A” as shown in Table TV.; ED50 [7]: 2.3 mg/kg
4 | NC(=O)C1=NN=C(c2ccc(N)cc2)c2cc3c(cc2C1)OCO3 [Example 32, 5-(4-Aminophenyl)-9H-1,3-dioxolo/4,5-h//2,3/benzodiazepine-8-carboxylic amide] | – | – | – | – | – | – | MES ED50 [7]: 2.5 mg/kg
5 | N#CC1=NN=C(c2ccc(N)cc2)c2cc3c(cc2C1)OCO3 [Example 47, 5-(4-Aminophenyl)-8-cyano-9H-1,3-dioxolo/4,5-h//2,3/benzodiazepine] | – | – | – | – | 89 | 15 | –
6 | Nc1ccc(C2=NN=C(c3nnn[nH]3)Cc3cc4c(cc32)OCO4)cc1 [Example 48, 5-(4-Aminophenyl)-8-(5-tetrazolyl)-9H-1,3-dioxolo/4,5-h//2,3/benzodiazepine] | – | – | – | – | – | – | melting point: 244 to 246 °C
7 | CC1=NN=C(c2ccc(N)cc2)c2cc3c(cc2C1)OCO3 [“A”, 8-Methyl-5-(4-aminophenyl)-9H-1,3-dioxolo/4,5-h/-/2,3/benzodiazepine, reference compound] | 24.5 | 1 h | 12 | 9.1 | 55 | 30 | ED50 ([6]; ip, read-out: AS convulsion clonic ED50): 4.3 mg/kg; ED50 ([6]; ip, read-out: AS convulsion tonic ED50): 3.6 mg/kg; LD50 at 7 day ([4]; po, NMRI mice, p.o., cumulative lethality on day 7, maximal dose 500 mg/kg, read-out: Appr. LD50 p.o.): 500 mg/kg; LD50 at 7 day ([4]; NMRI mice, ip., cumulative lethality on day 7, maximal dose 300 mg/kg, read-out: Appr- LD50 ip.): 392 mg/kg; ED50 [7]: 6.9 mg/kg
